Test results published in ChEMBL document CHEMBL1144744, “Hypoxia-inducible factor-1 and nuclear factor-kappaB inhibitory meroterpene analogues of bakuchiol, a constituent of the seeds of Psoralea corylifolia” (Bioorg Med Chem Lett, 2008).

Key:
AGS = experiment: Cytotoxicity against human AGS cells by MTT assay; assay type: functional, cell-based
[1] = target: Hypoxia inducible factors; HIF-1-alpha, HIF-2-alpha (Homo sapiens, UniProt Q16665+Q99814); experiment: Inhibition of hypoxia-induced HIF1 activation in human AGS cells by reporter gene assay; assay type: cell-based
[2] = Inhibition of TNF-alpha-induced NF-kappaB activation in human HeLa cells; assay type: cell-based
HeLa = experiment: Cytotoxicity against human HeLa cells by MTT assay; assay type: functional, cell-based

| IC50 [1] [µM] | IC50 [2] [µM] | SMILES | IC50 (AGS) [µM] | IC50 (HeLa) [µM] |
| --- | --- | --- | --- | --- |
| 8.7 | 5.7 | C=C[C@@](C)(/C=C/c1ccc(OC)cc1)CCC=C(C)C | 55.8 | > 50 |
| > 50 | > 50 | C=C[C@@](C)(/C=C/c1ccc(O)cc1)CCC1OC1(C)C (some centres not stated) | > 50 | > 50 |
| > 50 | > 50 | C=C[C@@](C)(/C=C/c1ccc(O)cc1)CCC(O)C(C)(C)O (some centres not stated) | > 50 | > 50 |
| 26.3 | 12.2 | C=C[C@@](C)(/C=C/c1ccc(OCC)cc1)CCC=C(C)C | > 50 | > 50 |
| 5.7 | 5.7 | C=C[C@@](C)(/C=C/c1ccc(OC(C)=O)cc1)CCC=C(C)C [ACETYLBAKUCHIOL] | 26.8 | 18.1 |
| 6.1 | 6.9 | C=C[C@@](C)(/C=C/c1ccc(O)cc1)CCC=C(C)C [BAKUCHIOL] | 15.3 | 11 |
| > 50 | 12.2 | C=C[C@@](C)(/C=C/c1ccc(OC(C)(C)[C@@H](O)CC[C@@](C)(C=C)/C=C/c2ccc(O)cc2)cc1)CCC=C(C)C | > 50 | > 50 |

| SMILES | IC50 [1] [µM] | IC50 [2] [µM] | IC50 (AGS) [µM] | IC50 (HeLa) [µM] |
| --- | --- | --- | --- | --- |
| CO[C@H]1/C=C\C=C(/C)C(=O)NC2=CC(=O)C(NCCN(C)C)=C(C[C@@H](C)C[C@H](OC)[C@H](O)[C@@H](C)/C=C(\C)[C@@H]1OC(N)=O)C2=O [ALVESPIMYCIN] | 0.0036 | 0.15 | 16 | 2.06 |
